In the supplement of paper PMC13380429:

How the values were obtained:
Conditions in all cases: 72 h
Caco-2 [1] = assay: relative viability EC50 (midpoint between 100% and the lowest measured viability); higher = less toxic
Calu-3 [2] = assay: as above
HepG2 [3] = assay: as above
U2OS [4] = assay: as above
Vero E6 [5] = assay: as above
Caco-2 [6] = assay: cell viability relative to DMSO; higher = less toxic
Calu-3 [7] = assay: as above
HepG2 [8] = assay: as above
U2OS [9] = assay: as above
Vero E6 [10] = assay: as above
Caco-2 [11] = assay: drug sensitivity score (DSS) for viability; higher = more toxic; extreme values may be limits of the assay
Calu-3 [12] = assay: as above
HepG2 [13] = assay: as above
U2OS [14] = assay: as above
Vero E6 [15] = assay: as above

Structure (SMILES) | relative viability EC50 (Caco-2 [1]) | relative viability EC50 (Calu-3 [2]) | relative viability EC50 (HepG2 [3]) | relative viability EC50 (U2OS [4]) | relative viability EC50 (Vero E6 [5]) | cell viability (Caco-2 [6]; 1 nM) | cell viability (Caco-2 [6]; 10 nM) | cell viability (Caco-2 [6]; 100 nM) | cell viability (Caco-2 [6]; 1000 nM) | cell viability (Caco-2 [6]; 10000 nM) | cell viability (Calu-3 [7]; 1 nM) | cell viability (Calu-3 [7]; 10 nM) | cell viability (Calu-3 [7]; 100 nM) | cell viability (Calu-3 [7]; 1000 nM) | cell viability (Calu-3 [7]; 10000 nM) | cell viability (HepG2 [8]; 1 nM) | cell viability (HepG2 [8]; 10 nM) | cell viability (HepG2 [8]; 100 nM) | cell viability (HepG2 [8]; 1000 nM) | cell viability (HepG2 [8]; 10000 nM) | cell viability (U2OS [9]; 1 nM) | cell viability (U2OS [9]; 10 nM) | cell viability (U2OS [9]; 100 nM) | cell viability (U2OS [9]; 1000 nM) | cell viability (U2OS [9]; 10000 nM) | cell viability (Vero E6 [10]; 1 nM) | cell viability (Vero E6 [10]; 10 nM) | cell viability (Vero E6 [10]; 100 nM) | cell viability (Vero E6 [10]; 1000 nM) | cell viability (Vero E6 [10]; 10000 nM) | drug sensitivity score (Caco-2 [11]) | drug sensitivity score (Calu-3 [12]) | drug sensitivity score (HepG2 [13]) | drug sensitivity score (U2OS [14]) | drug sensitivity score (Vero E6 [15])
CCc1nn(CCO)c(CC)c1Oc1cc(C#N)cc(C#N)c1 [lersivirine] | > 10 µM | > 10 µM | > 10 µM | > 10 µM | > 10 µM | 109% | 95.8% | 97.9% | 98.8% | 105% | 102% | 99.4% | 107% | 114% | 104% | 92.1% | 110% | 94.7% | 95.9% | 105% | 100% | 97.6% | 95.7% | 102% | 102% | 96.8% | 95.6% | 97.5% | 90.8% | 100% | 0 | 0 | 0 | 0 | 0
c1ccc2c(c1)Sc1ccccc1N2C[C@H]1CN2CCC1CC2 [levomequitazine] | > 10 µM | > 10 µM | > 10 µM | > 10 µM | > 10 µM | 99.6% | 106% | 106% | 105% | 82.6% | 105% | 104% | 102% | 108% | 86.3% | 104% | 97.7% | 97.9% | 98.2% | 86.9% | 97.6% | 102% | 97.8% | 101% | 90.4% | 115% | 98.2% | 99.3% | 98.6% | 93.5% | 0.3 | 0 | 0.2 | 0 | 0
COc1cccc(N(C)C(=S)Oc2ccc3c(c2)CCCC3)n1 [liranaftate] | > 10 µM | > 10 µM | > 10 µM | > 10 µM | > 10 µM | 97.4% | 97.7% | 96.2% | 109% | 97.5% | 96.9% | 98.4% | 102% | 105% | 97.6% | 105% | 97.7% | 101% | 100% | 110% | 97.2% | 98.3% | 95.5% | 96.6% | 95.8% | 97.2% | 99.4% | 99.6% | 95.2% | 99.3% | 0 | 0 | 0 | 0 | 0
Cl/C(=C\n1cncn1)c1ccc(Cl)cc1Cl [loreclezole] | > 10 µM | > 10 µM | > 10 µM | > 10 µM | > 10 µM | 91.1% | 92.8% | 94.6% | 95% | 104% | 100% | 94.7% | 105% | 113% | 97.6% | 96.5% | 98.9% | 104% | 90% | 87.7% | 95.9% | 100% | 96% | 99.7% | 108% | 101% | 102% | 98.8% | 101% | 96.2% | 0 | 0 | 0.5 | 0 | 0
CC(C)c1ccc2c(c1)CC[C@H]1[C@](C)(CN)CCC[C@]21C [lylamine] | 3.03 µM | 3.37 µM | 3.64 µM | 2.9 µM | 3.01 µM | 109% | 103% | 106% | 98.4% | 16.7% | 96% | 98% | 97.8% | 104% | 1.4% | 104% | 109% | 92.3% | 110% | 0% | 103% | 98.5% | 103% | 97.1% | 19.4% | 108% | 108% | 105% | 97.8% | 3.1% | 4.8 | 5.2 | 4.9 | 4.9 | 5.7
Cc1cccc(Nc2ccccc2C(=O)O)c1C [mefenamic-acid] | > 10 µM | > 10 µM | > 10 µM | > 10 µM | > 10 µM | 97.5% | 101% | 97.1% | 96.4% | 99.3% | 89.9% | 96.4% | 97.7% | 98.9% | 97.6% | 101% | 94.4% | 100% | 97.4% | 91.4% | 106% | 97% | 101% | 97.1% | 101% | 106% | 108% | 100% | 104% | 92% | 0 | 0 | 0 | 0 | 0
[O-][n+]1cccc(CO)c1 [mepiroxol] | > 10 µM | > 10 µM | > 10 µM | > 10 µM | > 10 µM | 97.3% | 95.1% | 94.3% | 104% | 103% | 103% | 112% | 99.4% | 109% | 104% | 90.9% | 118% | 104% | 96.3% | 97% | 100% | 99.2% | 104% | 99.2% | 99.2% | 92.1% | 97.9% | 89.3% | 98.9% | 108% | 0 | 0 | 0 | 0 | 0
CC(=O)/N=c1/sc(S(N)(=O)=O)nn1C [methazolamide] | > 10 µM | > 10 µM | > 10 µM | > 10 µM | > 10 µM | 110% | 101% | 100% | 94% | 96.7% | 100% | 99.4% | 93.7% | 98.3% | 107% | 101% | 97.6% | 101% | 101% | 102% | 105% | 107% | 104% | 98.3% | 102% | 97% | 99% | 98.2% | 98.4% | 92.7% | 0 | 0 | 0 | 0 | 0
COc1cccc(OC)c1C(=O)N[C@@H]1C(=O)N2[C@@H]1SC(C)(C)[C@@H]2C(=O)O [methicillin] | > 10 µM | > 10 µM | > 10 µM | > 10 µM | > 10 µM | 95.2% | 97.2% | 101% | 91.4% | 96.5% | 105% | 99.1% | 97% | 99.1% | 102% | 96% | 96.1% | 87% | 106% | 107% | 105% | 94.7% | 99.6% | 99% | 99.8% | 107% | 98.6% | 94.9% | 102% | 87.9% | 0 | 0 | 0 | 0 | 0
CC[C@@H](CO)NC(=O)[C@@H]1C=C2c3cccc4[nH]cc(c34)C[C@H]2N(C)C1 [methylergometrine] | > 10 µM | > 10 µM | > 10 µM | > 10 µM | > 10 µM | 97.6% | 98% | 96.2% | 96.7% | 99.5% | 96.9% | 98.3% | 99.4% | 86.2% | 91.2% | 98.6% | 102% | 97.5% | 110% | 93.6% | 96.2% | 99.1% | 102% | 98.5% | 104% | 106% | 101% | 100% | 102% | 99.8% | 0 | 1.1 | 0 | 0 | 0
CCN1C[C@]2(COC(=O)c3ccccc3N3C(=O)C[C@H](C)C3=O)CC[C@H](OC)[C@@]34[C@@H]5C[C@H]6[C@H](OC)[C@@H]5[C@](O)(C[C@@H]6OC)[C@](O)([C@@H](OC)[C@H]23)[C@@H]14 [methyllycaconitine] | > 10 µM | > 10 µM | > 10 µM | > 10 µM | > 10 µM | 108% | 96.1% | 103% | 97% | 98.1% | 97.3% | 102% | 90.3% | 91.1% | 98.6% | 96.3% | 102% | 99.4% | 95.2% | 101% | 97.1% | 94.5% | 95.8% | 96.3% | 94.7% | 104% | 102% | 101% | 102% | 97.8% | 0 | 0 | 0 | 0 | 0
O=C(O)[C@H]1CN(C/C=C/P(=O)(O)O)CCN1 [midafotel] | > 10 µM | > 10 µM | > 10 µM | > 10 µM | > 10 µM | 102% | 101% | 97.4% | 102% | 98.3% | 97.6% | 94.8% | 105% | 111% | 97.4% | 97.5% | 94% | 104% | 93.1% | 107% | 96.3% | 104% | 99% | 103% | 106% | 95.5% | 93.9% | 95.6% | 91.9% | 106% | 0 | 0 | 0 | 0 | 0
CCOC(=O)[C@H](CCc1ccccc1)N[C@@H](C)C(=O)N1Cc2cc(OC)c(OC)cc2C[C@H]1C(=O)O [moexipril] | > 10 µM | > 10 µM | > 10 µM | > 10 µM | > 10 µM | 106% | 96% | 101% | 89.3% | 98.2% | 97% | 97% | 107% | 111% | 104% | 95.8% | 98.6% | 96% | 95.5% | 92.2% | 96% | 102% | 92.8% | 100% | 95.7% | 96.2% | 102% | 96.6% | 96.9% | 102% | 0 | 0 | 0 | 0 | 0
